Like-named read-outs stand apart in the source and are kept apart here.

Assay [1] has as its system Early erythroblast progenitor cells derived from cord blood. Put plainly: Reversion of immortality after doxycycline withdrawal (qRT-PCR, cell size). The assay is classed as cell-based, human. Background: Quantitative PCR measures a nucleic acid by following its amplification.
Assay [2] deals with hepatocytes. The assay is described as follows: RNA-seq of hepatocytes stimulated with the compounds of Table 68.
The mark [3] stands for this setting: sample D2-dox+ (day 2, on doxycycline; reference).
The mark [4] stands for this setting: sample D6-dox− (6 days after doxycycline withdrawn).
[5] abbreviates: sample D2-Dox− (2 days after doxycycline withdrawn).
[6] abbreviates: sample D3-Dox− (3 days after doxycycline withdrawn).
[7] abbreviates: sample D4-Dox− (4 days after doxycycline withdrawn).
Setting [8] is: sample D5-Dox− (5 days after doxycycline withdrawn).
The mark [9] stands for this setting: hepatocytes stimulated with the compound, RNA-seq, significance: FPKM≥1, q-value≤0.05, log 2 fold change≥1.5.

With `C[C@H]1c2cccc(O)c2C(=O)C2=C(O)[C@]3(O)C(=O)C(C(N)=O)=C(O)[C@@H](N(C)C)[C@@H]3[C@@H](O)[C@@H]21` [dox], in assay [1] (setting [3]), the “RQ of ALAS2” value amounted to 1.00, the “RQ of BCLXL” value is recorded as 1.00, the “RQ of HBB” value stood at 1.00 and the “RQ of MYC” value turned out to be 1.00. For the same molecule, in assay [1] (setting [3]), the “RQ of p21” value was determined as 1.00 and the “RQ of p53” value was found to be 1.00. Besides, the “RQ (relative quantification of expression) of RPS19” value in assay [1] (sample D2-dox+ (day 2, on doxycycline; reference), B-ACTIN control) is on record as 1.00. Also, in assay [1] (setting [4]), the “RQ of ALAS2” value amounted to 0.17, the “RQ of BCLXL” value is on record as 0.03, the “RQ of HBB” value is given as 0.57 and the “RQ of MYC” value was 0.03. Also, in assay [1] (setting [4]), the “RQ of RPS19” value is on record as 0.21, the “RQ of p21” value stood at 1.14 and the “RQ of p53” value was found to be 0.16.

Take `C[C@H]1c2cccc(O)c2C(=O)C2=C(O)[C@]3(O)C(=O)C(C(N)=O)=C(O)[C@@H](N(C)C)[C@@H]3[C@@H](O)[C@@H]21` [Dox]: in assay [1] (setting [5]), the “RQ of ALAS2” value is listed as 2.98, the “RQ of BCLXL” value amounted to 0.29, the “RQ of HBB” value is listed as 7.81 and the “RQ of MYC” value is recorded as 0.04. Besides, in assay [1] (setting [5]), the “RQ of RPS19” value was found to be 0.28, the “RQ of p21” value was found to be 2.31 and the “RQ of p53” value amounted to 0.40. In assay [1] (setting [6]), the “RQ of ALAS2” value is listed as 1.44, the “RQ of BCLXL” value is on record as 0.11, the “RQ of HBB” value amounted to 5.57 and the “RQ of MYC” value is listed as 0.03. Further, in assay [1] (setting [6]), the “RQ of RPS19” value is recorded as 0.21, the “RQ of p21” value worked out at 1.05 and the “RQ of p53” value came out at 0.21. Besides, in assay [1] (setting [7]), the “RQ of ALAS2” value stood at 0.94, the “RQ of BCLXL” value was found to be 0.07, the “RQ of HBB” value was determined as 4.89 and the “RQ of MYC” value stood at 0.06. In assay [1] (setting [7]), the “RQ of RPS19” value was 0.28, the “RQ of p21” value was 2.03 and the “RQ of p53” value is on record as 0.22. In addition, in assay [1] (setting [8]), the “RQ of ALAS2” value is 0.40, the “RQ of BCLXL” value was found to be 0.04, the “RQ of HBB” value came to 2.13 and the “RQ of MYC” value stood at 0.06. In addition, in assay [1] (setting [8]), the “RQ of RPS19” value is reported as 0.27, the “RQ of p21” value turned out to be 1.61 and the “RQ of p53” value turned out to be 0.20.

For `C[C@@H](Oc1cc(-c2cnn(C3CCNCC3)c2)cnc1N)c1c(Cl)ccc(F)c1Cl` [Crizotinib], in assay [2] (setting [9]), the “# of genes having significantly altered expression” value is 3265.

With `c1ccc2c(-c3cnn4cc(-c5ccc(N6CCNCC6)cc5)cnc34)ccnc2c1` [LDN193189], the “# of genes having significantly altered expression” value in assay [2] is given as 67.

With `C[C@@H]1CC(=O)c2c(ccc3c2C(=O)c2cccc(O)c2C3=O)C1` [STA-21], the “# of genes having significantly altered expression” value in assay [2] (setting [9]) is recorded as 6.

As to `CN(C)C/C=C/C(=O)Nc1cc2c(Nc3ccc(F)c(Cl)c3)ncnc2cc1O[C@H]1CCOC1` [Afatinib], the “# of genes having significantly altered expression” value in assay [2] (setting [9]) is 2010.

Take `[Cl][Co][Cl]` [Cobalt chloride]: in assay [2], the “# of genes having significantly altered expression” value amounted to 1275.

`COc1ccc(C(=O)Nc2sc3c(c2C(N)=O)CCCC3)cc1OC` [TCS 359]: the “# of genes having significantly altered expression” value in assay [2] amounted to 63.

As for `COc1cc2c(cc1OC)-c1c(OC)c(OC)cc3ccnc(c13)C2=O` [Oxoglaucine], in assay [2] (setting [9]), the “# of genes having significantly altered expression” value is recorded as 31.

In the case of `Cc1cc(C(C)Nc2ccccc2)c2nc(N3CCOCC3)cc(=O)n2c1` (centres unmarked) [TGX-221], the “# of genes having significantly altered expression” value in assay [2] worked out at 1.

For `Cc1[nH]c(/C=C2\C(=O)Nc3ccc(S(=O)(=O)Cc4c(Cl)cccc4Cl)cc32)c(C)c1C(=O)N1CCC[C@@H]1CN1CCCC1` [PHA-665752], the “# of genes having significantly altered expression” value in assay [2] (setting [9]) is 1767.

B1: Nodal (protein, UniProt Q96S42 238-347, looked up)
Nodal homolog: HHLPDRSQLCRKVKFQVDFNLIGWGSWIIYPKQYNAYRCEGECPNPVGEEFHPTNHAYIQSLLKRYQPHRVPSTCCAPVKTKPLSMLYVDNGRVLLDHHKDMIVEECGCL
Turning to B1, the “# of genes having significantly altered expression” value in assay [2] (setting [9]) was 863.

B2: Anti-mullerian hormone (protein, UniProt P03971 452-560, looked up)
Muellerian-inhibiting factor: SAGATAADGPCALRELSVDLRAERSVLIPETYQANNCQGVCGWPQSDRNPRYGNHVVLLLKMQVRGAALARPPCCVPTAYAGKLLISLSEERISAHHVPNMVATECGCR
Consider B2, for which the “# of genes having significantly altered expression” value in assay [2] (setting [9]) came out at 912.

B3: Wnt3a (protein, UniProt P56704 19-352, looked up)
Protein Wnt-3a: SYPIWWSLAVGPQYSSLGSQPILCASIPGLVPKQLRFCRNYVEIMPSVAEGIKIGIQECQHQFRGRRWNCTTVHDSLAIFGPVLDKATRESAFVHAIASAGVAFAVTRSCAEGTAAICGCSSRHQGSPGKGWKWGGCSEDIEFGGMVSREFADARENRPDARSAMNRHNNEAGRQAIASHMHLKCKCHGLSGSCEVKTCWWSQPDFRAIGDFLKDKYDSASEMVVEKHRESRGWVETLRPRYTYFKVPTERDLVYYEASPNFCEPNPETGSFGTRDRTCNVSSHGIDGCDLLCCGRGHNARAERRREKCRCVFHWCCYVSCQECTRVYDVHTCK
As to B3, the “# of genes having significantly altered expression” value in assay [2] (setting [9]) is on record as 1142.

B4: GDF10 (BMP3b) (protein, UniProt P55107 369-478, looked up)
Growth/differentiation factor …: QWDEPRVCSRRYLKVDFADIGWNEWIISPKSFDAYYCAGACEFPMPKIVRPSNHATIQSIVRAVGIIPGIPEPCCVPDKMNSLGVLFLDENRNVVLKVYPNMSVDTCACR
Regarding B4, the “# of genes having significantly altered expression” value in assay [2] (setting [9]) is listed as 855.

B5: BMP4 (protein, UniProt P12644 293-408, looked up)
Bone morphogenetic protein 4: SPKHHSQRARKKNKNCRRHSLYVDFSDVGWNDWIVAPPGYQAFYCHGDCPFPLADHLNSTNHAIVQTLVNSVNSSIPKACCVPTELSAISMLYLDEYDKVVLKNYQEMVVEGCGCR
Turning to B5, the “# of genes having significantly altered expression” value in assay [2] (setting [9]) worked out at 2218.

Values taken from patent US20210254056A1, “IDENTIFICATION AND TARGETED MODULATION OF GENE SIGNALING NETWORKS” (CAMP4 THERAPEUTICS CORPORATION, priority 2017, published 2021).
